These are literature values, as cited in patent publication US7157490B2, “Phenylalanine derivatives as dipeptidyl peptidase inhibitors for the treatment or prevention of diabetes” (Merck & Co., Inc., priority 2002, dated 2007).

For series [1], the system named is rats. The conditions noted are these: doubled from day 7.
Series [2] relates to mouse model of cyclophosphamide-induced neutropenia.
In series [3] the target is T1, DP-IV (Homo sapiens, UniProt P27487).
T1 construct: GRF is rapidly degraded in plasma to GRF[3–44]; from tissue
T1 sequence (P27487 39-766 limits assumed): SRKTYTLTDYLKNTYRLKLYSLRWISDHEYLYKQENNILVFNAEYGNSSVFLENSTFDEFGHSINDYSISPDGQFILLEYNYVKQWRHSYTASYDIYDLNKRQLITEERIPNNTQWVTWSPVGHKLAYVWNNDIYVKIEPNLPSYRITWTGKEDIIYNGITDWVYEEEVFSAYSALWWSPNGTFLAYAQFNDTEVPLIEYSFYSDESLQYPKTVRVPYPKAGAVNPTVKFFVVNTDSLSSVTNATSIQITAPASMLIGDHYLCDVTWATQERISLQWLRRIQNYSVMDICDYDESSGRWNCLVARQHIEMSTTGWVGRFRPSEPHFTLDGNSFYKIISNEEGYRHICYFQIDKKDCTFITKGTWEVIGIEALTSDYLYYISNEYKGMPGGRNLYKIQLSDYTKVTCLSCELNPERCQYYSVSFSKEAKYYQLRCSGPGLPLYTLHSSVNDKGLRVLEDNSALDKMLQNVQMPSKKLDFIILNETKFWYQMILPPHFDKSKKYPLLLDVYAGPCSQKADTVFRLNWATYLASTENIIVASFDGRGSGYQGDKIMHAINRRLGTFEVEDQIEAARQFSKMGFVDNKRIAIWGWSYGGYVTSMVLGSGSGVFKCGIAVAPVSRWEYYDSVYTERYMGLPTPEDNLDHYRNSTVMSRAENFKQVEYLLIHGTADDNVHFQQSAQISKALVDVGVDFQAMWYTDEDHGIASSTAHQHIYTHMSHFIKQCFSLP

Take `CC(C)N1CCC(c2ccccc2)(c2ccccc2)CC1` [Prodipine, Pro-Pro-diphenyl-phosphonate]: the cardiac allograft survival in series [1] is recorded as 14 day. Turning to `CC(C)[C@H](N)C(=O)N1CCC[C@H]1B(O)O` [Val-Boro-Pro], the hematopoiesis entry in series [2] is given as “stimulated hematopoiesis”. Take diprotin A: the “degradation of GRF in plasma to GRF[3–44]” value in series [3] is “prevented”.
